From ChEMBL document CHEMBL3638502, “Isonicotinamide orexin receptor antagonists” (2013)

Target: T1, Orexin receptor type 2 (Homo sapiens, UniProt O43614)
T1 sequence (O43614 whole entry): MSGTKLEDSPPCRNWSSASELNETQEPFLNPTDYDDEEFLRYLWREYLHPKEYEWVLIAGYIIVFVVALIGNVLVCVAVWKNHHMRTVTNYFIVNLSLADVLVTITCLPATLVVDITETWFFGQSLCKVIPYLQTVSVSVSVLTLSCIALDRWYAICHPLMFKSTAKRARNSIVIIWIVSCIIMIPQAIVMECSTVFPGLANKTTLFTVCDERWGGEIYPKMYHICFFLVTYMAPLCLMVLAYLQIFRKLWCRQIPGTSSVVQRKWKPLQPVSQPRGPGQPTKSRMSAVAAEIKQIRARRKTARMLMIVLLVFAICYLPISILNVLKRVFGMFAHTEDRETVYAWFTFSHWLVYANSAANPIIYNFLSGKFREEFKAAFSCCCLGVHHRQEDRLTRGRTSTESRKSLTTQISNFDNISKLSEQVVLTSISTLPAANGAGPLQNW
Assay: FLIPR Ca2+ Flux Assay: Assay methodology using FLIPR Ca2+ Flux Assay (Okumura et al., Biochem. Biophys. Res. Comm. 280:976-981, 2001).
Assay type: functional

Compound: COc1ccc(CNC(=O)c2cc(-c3cncc(C)c3)ncc2-c2ccccc2)nc1OC
- Ki: 0.72 nM
